# In paper PMC7822874, “Chemoprotective antimalarials identified through quantitative high-throughput screening of Plasmodium blood and liver stage parasites” (Scientific Reports, 2021):
# System: T1, Plasmodium falciparum Dd2-attB (parental line), asexual blood stages
# T1 construct: Dd2-attB, the isogenic parental line
# Assay: microbe, parasite or virus in culture
# Design: species or system P. falciparum Dd2-attB in human erythrocytes; SYBR Green-I proliferation assay, Dd2-attB parental line, asexual blood stages
# Settings: Plasmodium falciparum, DD2, Erythrocyte, 72 h, read-out: Calculated / Average Log AC50 (M), mean of replicates, 72 h (converted)
row,SMILES,AC50
1,Cc1cccc(C)c1Nc1c(-c2cccs2)nc2ncccn12 [NCGC00107923-03],5.03e-07 M
2,O=C(Nc1ccccc1F)c1nc([S+](=O)([O-])Cc2ccccc2F)ncc1Cl [NCGC00117146-03],1.34e-05 M
3,COCCn1c(C)cc(O)c(C(c2ccc(OC)cc2)N2CCN(c3ccccc3)CC2)c1=O (stereo not shown) [NCGC00133311-02],9.29e-06 M
4,OCc1cn(Cc2ccc(O)c3ncccc23)cn1 [NCGC00183377-01],2.08e-05 M
5,O=C(O)c1ccnc2c(O)cccc12 [NCGC00183785-01],2e-05 M
6,Oc1ccc(CNc2ccccc2Br)c2cccnc12 [NCGC00184890-01],1.78e-05 M
7,COC(=O)c1ccc(OC(C)=O)c2ncccc12 [NCGC00187997-01],1.93e-05 M
8,O=C(O)c1ccc(O)c2ncc(N3CCCC3)cc12 [NCGC00189500-01],1.72e-05 M
9,CN(C)CCCNC(=O)c1ccc(-c2cnc3c(O)ccc(C(=O)O)c3c2)cc1 [NCGC00189503-01],1.93e-05 M
10,O=C(O)c1ccc(O)c2ncc(N3CCCCC3)cc12 [NCGC00241752-01],1.65e-05 M
11,O=C(O)c1ccc(O)c2ncc(-c3cccc(N4CCOCC4)c3)cc12 [NCGC00241753-01],2.16e-05 M
12,O=C(O)c1ccc(O)c2ncc(N3CC(N4CCOCC4)C3)cc12 [NCGC00241761-01],1.72e-05 M
13,O=C(O)c1ccc(O)c2ncc(-c3n[nH]nc3-c3ccccc3)cc12 [NCGC00241764-02],4.66e-06 M
14,O=C(O)c1ccnc2c(O)cc(N3CCOCC3)cc12 [NCGC00247744-02],1.5e-07 M
15,CN1CCC(N2CCCC(CNC(=O)c3cccc(-c4cc(O)c5ncccc5c4)c3)C2)CC1 (stereo not shown) [NCGC00247748-01],1.85e-05 M
16,CN(C)CCCNC(=O)c1ccccc1-c1cc(O)c2ncccc2c1 [NCGC00247753-01],1.47e-05 M
17,CN(C)CCCNC(=O)c1cccc(-c2cc(O)c3nccc(C(=O)O)c3c2)c1 [NCGC00247762-01],2.25e-05 M
18,CN(C)CCCN1CCCN(C(=O)c2cccc(-c3cc(O)c4ncccc4c3)c2)C1 [NCGC00247763-01],1.93e-05 M
19,COC(=O)c1ccnc(-c2cc(C(=O)NCCc3ccccc3)ccn2)c1 [NCGC00351541-01],2.16e-05 M
20,CCOC(=O)c1ccnc(CNCC(=O)N(CC)CCN(C)C)c1 [NCGC00371443-05],1.47e-07 M
21,Cn1cnc(-c2nccc3c(O)nc(OCCCC(F)(F)F)nc23)c1 [NCGC00381768-02],2.08e-05 M
22,CCc1c(C)[nH]c2c(-c3cnn(-c4cc(CO)ccn4)c3)cnn2c1=O [NCGC00387307-02],4.84e-08 M
